# Experiments:
# [1] = Pharmacokinetic study: plasma cannabinoids after single oral gavage of full-spectrum cannabis extract or individual cannabinoid; conditions: for Cmax / AUC / half-life / tmax: both, mouse, plasma, po; for Cmax: 25 mg/kg, doses mg/kg: CBD 25, THC 15, THCA 50; for half-life: t1/2, mouse plasma
# Protocol: Drugs were administered by oral gavage in a volume of 5 mL/kg. Wildtype male and female mice (postnatal day 21–28, P21-28) received a single oral gavage of either the full-spectrum cannabis extract or an individual cannabinoid. Cannabinoid doses within the full-spectrum extract or as an individual cannabinoid were as follows in mg/kg: CBDA and Δ^9-THCA, 50; CBD, 25; Δ^9-THC, 15; CBC, 9; CBDVA and CBGA, 7; CBN, 2.5; CBG, 1.5; CBDV and Δ^9-THCV, < 1 (Fig. 1a). At selected time points (15–240 min), mice were anesthetized with isoflurane and whole blood was collected by cardiac puncture. Plasma was isolated by centrifugation (9000 g for 10 min, 4 °C) and stored at − 80 °C until assayed.
# Concentrations of cannabinoids in plasma samples were quantified as described previously, [24], [58]. […] The organic layer was isolated by centrifugation (4000 g for 10 min) and evaporated to dryness with N2. Samples were reconstituted in acetonitrile and 0.1% formic acid in water (1:3.3, v/v) for supported-liquid extraction (SLE) with methyl tert-butyl ether (MTBE) using Biotage Isolute SLE+ columns (Uppsala, SWE). […] Quantification of cannabinoids was achieved by comparing samples to standards prepared with known amounts of drug.
# Plasma concentrations at each time point were averaged and pharmacokinetic parameters were calculated by noncompartmental analysis. Elimination rate constants were determined by linear regression of the terminal component of the concentration–time curve using GraphPad Prism 8.2 (La Jolla, USA). The log-linear trapezoidal method was used to calculated total drug exposure (area under concentration–time curve) using equations described previously.
# BCRP [2] = molecular target: T1, BCRP (Homo sapiens, UniProt Q9UNQ0); experiment: Inhibition of BCRP-mediated transport of CBDA by cannabinoids (transwell, BCRP MDCK cells); conditions: 10 µM
# T1 sequence (Q9UNQ0 1-655): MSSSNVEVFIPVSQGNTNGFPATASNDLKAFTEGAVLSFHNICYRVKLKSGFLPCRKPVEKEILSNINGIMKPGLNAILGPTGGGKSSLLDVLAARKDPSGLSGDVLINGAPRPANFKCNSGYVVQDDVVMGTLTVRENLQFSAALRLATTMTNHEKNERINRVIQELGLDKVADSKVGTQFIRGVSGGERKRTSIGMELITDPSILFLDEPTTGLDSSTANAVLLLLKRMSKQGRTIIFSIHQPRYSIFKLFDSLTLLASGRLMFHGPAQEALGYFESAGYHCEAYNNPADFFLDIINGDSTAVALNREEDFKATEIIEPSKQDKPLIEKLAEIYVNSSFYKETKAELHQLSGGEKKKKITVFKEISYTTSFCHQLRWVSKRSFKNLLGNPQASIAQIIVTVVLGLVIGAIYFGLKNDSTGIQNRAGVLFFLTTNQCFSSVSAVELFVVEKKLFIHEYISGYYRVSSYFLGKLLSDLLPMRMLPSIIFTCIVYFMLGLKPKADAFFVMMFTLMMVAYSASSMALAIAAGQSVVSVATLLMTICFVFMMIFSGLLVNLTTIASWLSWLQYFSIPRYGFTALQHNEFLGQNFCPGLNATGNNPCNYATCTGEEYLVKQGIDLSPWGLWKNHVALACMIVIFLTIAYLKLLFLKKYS
# Protocol: Cannabinoids were tested at 10 µM. […] Data are expressed as means ± SEM, with n = 4 per time point. […] Schematic created using BioRender.com.
# (§1) Cannabinoids were analyzed as described above.
# BCRP [3] = molecular target: T1, BCRP; experiment: Bidirectional transwell substrate assay, MDCK cells expressing BCRP (with or without elacridar); conditions: for efflux ratio at 240 min, 10 µM: human, r (transport efflux ratio)
# Protocol: (§2) We first aimed to determine whether the cannabinoids found in the full-spectrum cannabis extract were substrates of P-glycoprotein and BCRP by using MDCK cells expressing human P-glycoprotein or BCRP in vitro. Transwell assays were conducted to assess bidirectional transport of the cannabinoids detected in plasma following administration of the full-spectrum cannabis extract (CBD, CBDA, CBDVA, CBGA, Δ^9-THC and Δ^9-THCA), including the respective neutral compounds (CBDV and CBG) across wildtype, BCRP and P-glycoprotein MDCK cell monolayers. […] BCRP and P-glycoprotein preferentially transport substrates in the B > A direction.
# (§3) Media in the donor chamber was then replaced with that containing 10 µM of an individual cannabinoid in the presence of either vehicle or inhibitor and returned to 37 °C. Aliquots (25 or 50 µL) were removed from the accepter chamber at 60, 120, 180 and 240 min.
# as §1
# P-glycoprotein = P-glycoprotein (Homo sapiens, UniProt P08183); experiment: Bidirectional transwell substrate assay, MDCK cells expressing P-glycoprotein
# Protocol: as §2, §3, §1
# Bcrp1 = conditions: mouse Bcrp1; cited from earlier work
# [4] = Bidirectional transwell transport assay, wildtype MDCK cell monolayers; conditions: dog, MDCK
# Protocol: as §2, §3, §1
# wildtype MDCK cells = experiment: as above; conditions: wildtype MDCK cells, 10 µM cannabinoid, apical to basolateral
# Protocol: as §2, §3, §1
# BCRP [5] = molecular target: T1, BCRP; experiment: Inhibition of BCRP-mediated transport of prazosin (transwell, BCRP MDCK cells); conditions: 10 µM, compared to vehicle
# [6] = mouse plasma, oral, administered in full-spectrum extract, doses mg/kg: CBD 25, CBDA 50, CBDVA 7, CBGA 7, THC 15, THCA 50
# [7] = BCRP MDCK cells, 10 µM cannabinoid, substrate threshold 1.5
# Chain of P-glycoprotein (P08183 whole entry): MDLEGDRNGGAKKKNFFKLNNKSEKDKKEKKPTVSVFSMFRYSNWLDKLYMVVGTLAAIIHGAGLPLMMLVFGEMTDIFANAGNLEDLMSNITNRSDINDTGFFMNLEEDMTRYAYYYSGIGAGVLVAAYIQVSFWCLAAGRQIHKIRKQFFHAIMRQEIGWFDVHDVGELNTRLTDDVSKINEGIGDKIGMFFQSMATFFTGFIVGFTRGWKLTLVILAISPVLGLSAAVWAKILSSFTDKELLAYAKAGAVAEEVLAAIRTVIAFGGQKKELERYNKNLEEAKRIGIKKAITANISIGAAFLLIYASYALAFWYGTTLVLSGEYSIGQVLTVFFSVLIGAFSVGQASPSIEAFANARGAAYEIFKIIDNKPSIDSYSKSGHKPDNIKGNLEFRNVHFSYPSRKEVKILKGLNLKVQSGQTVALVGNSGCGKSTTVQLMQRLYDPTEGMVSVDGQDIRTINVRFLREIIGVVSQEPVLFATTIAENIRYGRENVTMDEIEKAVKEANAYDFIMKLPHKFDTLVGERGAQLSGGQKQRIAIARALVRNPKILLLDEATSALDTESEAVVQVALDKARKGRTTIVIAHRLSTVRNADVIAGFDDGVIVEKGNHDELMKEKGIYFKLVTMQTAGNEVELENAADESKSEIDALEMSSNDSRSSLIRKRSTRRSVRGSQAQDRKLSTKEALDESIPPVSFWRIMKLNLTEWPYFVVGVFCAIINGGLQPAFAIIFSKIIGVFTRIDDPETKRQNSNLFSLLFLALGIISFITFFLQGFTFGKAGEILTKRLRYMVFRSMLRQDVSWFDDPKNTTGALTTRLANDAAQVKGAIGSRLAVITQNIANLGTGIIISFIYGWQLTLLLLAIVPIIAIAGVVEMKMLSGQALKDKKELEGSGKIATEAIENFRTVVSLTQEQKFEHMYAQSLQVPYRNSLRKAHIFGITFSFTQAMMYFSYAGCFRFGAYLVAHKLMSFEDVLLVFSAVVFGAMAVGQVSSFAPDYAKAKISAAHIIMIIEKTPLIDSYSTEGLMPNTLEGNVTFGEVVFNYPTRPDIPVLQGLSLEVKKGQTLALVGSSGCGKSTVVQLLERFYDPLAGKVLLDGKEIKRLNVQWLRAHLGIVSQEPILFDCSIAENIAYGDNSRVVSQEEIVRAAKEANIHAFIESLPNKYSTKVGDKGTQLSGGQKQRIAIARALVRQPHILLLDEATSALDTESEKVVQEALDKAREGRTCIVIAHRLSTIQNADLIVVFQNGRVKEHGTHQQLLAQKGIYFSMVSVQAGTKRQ
compound,measurement,setting,value
"C=C(C)[C@@H]1CCC(C)=C[C@H]1c1c(O)cc(CCCCC)cc1O [CBD, cannabidiol]",Cmax,"[1]; mouse plasma, oral, administered as individual cannabinoid",304 ± 28 ng/mL
same,Cmax,"[1]; mouse plasma, oral, administered in full-spectrum extract",60 ± 6 ng/mL
same,AUC,"[1]; mouse plasma, oral, administered as individual cannabinoid, doses mg/kg: CBD 25, CBDA 50, CBDVA 7, THC 15, THCA 50",1730 ng·h/mL
same,AUC,[1]; [6],717 ng·h/mL
same,half-life,"[1]; oral, administered as individual cannabinoid, doses mg/kg: CBD 25, CBDA 50, CBDVA 7, THC 15, THCA 50",3.62 h
same,half-life,"[1]; oral, administered in full-spectrum extract, doses mg/kg: CBD 25, CBDA 50, CBDVA 7, CBGA 7, THC 15, THCA 50",8.07 h
same,tmax,"[1]; mouse plasma, oral, administered as individual cannabinoid, doses mg/kg: CBD 25, CBDA 50, CBDVA 7, CBGA 7, THC 15, THCA 50",1.5 h
same,tmax,[1]; [6],≤ 1 h
same,"Total plasma exposure in full-spectrum extract relative to individual compound, fold lower","[1]; mouse plasma, oral, equivalent doses",2–4 ×
same,Detection in plasma following oral administration of the full-spectrum extract,"[1]; mouse plasma, single oral dose of extract",detected
same,Effect on BCRP-mediated transport of CBDA,"BCRP [2]; BCRP MDCK cells, compared to vehicle",Neither CBD nor CBDVA affected CBDA transport via BCRP
same,r (transport efflux ratio) of CBDA in the presence of inhibitor,"BCRP [2]; human, 240 min",5.9 ± 0.1
same,P (A > B),"BCRP [3]; BCRP MDCK cells, 10 µM cannabinoid, apical to basolateral",52 ± 8 × 10^−5 cm/s
same,P (B > A),"BCRP [3]; BCRP MDCK cells, 10 µM cannabinoid, basolateral to apical",86 ± 20 × 10^−5 cm/s
same,r (transport efflux ratio),BCRP [3]; [7],1.6 ± 0.3
same,BCRP substrate status,"BCRP [3]; human BCRP MDCK cells vs wildtype, with elacridar control",BCRP substrates
same,"efflux ratio at 240 min, 10 µM",BCRP [3]; [7],> 1.5
same,"efflux ratio at 240 min, 10 µM","BCRP [3]; with elacridar 10 µM, BCRP MDCK cells, 10 µM cannabinoid in the presence of 10 µM elacridar",1 ± 0.2
same,P (A > B),"P-glycoprotein; P-glycoprotein MDCK cells, 10 µM cannabinoid, apical to basolateral",25 ± 7 × 10^−5 cm/s
same,P (B > A),"P-glycoprotein; P-glycoprotein MDCK cells, 10 µM cannabinoid, basolateral to apical",15 ± 3 × 10^−5 cm/s
same,P-glycoprotein substrate status,P-glycoprotein; human P-glycoprotein MDCK cells vs wildtype,not P-glycoprotein substrates
same,Bcrp1 substrate status,Bcrp1,not a substrate of mouse Bcrp1
same,"Papp B→A at 240 min, 10 µM",[4],250 ± 30 ×10⁻⁶ cm/s
same,"efflux ratio at 240 min, 10 µM",[4],0.6 ± 0.2
same,P (A > B),wildtype MDCK cells,41 ± 5 × 10^−5 cm/s
same,Effect on BCRP-mediated transport of prazosin,BCRP [5],identified as an inhibitor of BCRP
